According to patent US20240368133A1, “Compounds for the Treatment of Pain, in Particular, Neuropathic Pain, and/or Other Diseases or Disorders that are Associated with AT2R and/or AT2R Mediated Signaling” (Confo Therapeutics N.V., priority 2021, published 2024):

Columns and labels:
[1] = Metabolic stability in hepatocytes, human; type: in vitro ADME; conditions: pooled cryopreserved hepatocytes, read-out: Human Clint (μL/min/10^6 cells)
[2] = Thermodynamic solubility protocol 1 (PBS pH 7.4, citrate buffer pH 3.0); type: physicochemical; conditions: 25° C.
Protocol: In a 8 mL glass vial, 1-2 mg of dry matter of the test compound were mixed with the suitable buffers (phosphate-buffered saline pH 7.4 (138 mM NaCl, 2.7 mM KCl, 10 mM K-phosphate) or 100 mM citrate buffer pH 3.0) to reach a theoretical concentration of 4 mM. The solutions were allowed to further equilibrate at 25° C. on a thermostatic shaker. After 4 and 24 hours of shaking, respectively, the incubation mixtures were filtered through HTS filter plates using a vacuum manifold. The filtrates of test compounds were diluted 2-fold with acetonitrile with 4% DMSO before measuring. In parallel, using a 20 mM DMSO stock solution, compound dilutions in 50% acetonitrile/buffer were prepared to the theoretical concentrations of 0 μM (blank), 10 μM, 25 μM, 50 μM, 100 μM and 200 μM with 2% final DMSO to generate calibration curves.
Ondansetron (Sigma Aldrich USA, cat #03639) was used as a reference to control proper assay performance. 200 μl of each sample were transferred to a 96-well plate and solubility was measured in a 200-550 nm range (in steps of 5 nm). The measurements were performed using a Spectra Max Plus reader in UV-Vis mode. Acquisition and analysis of the data were performed using SoftMax Pro v.5.4 (Molecular Devices) and Excel 2010 data analysis software. Proper absorbance wavelengths for calculations were selected for each compound manually based on absorbance maximums (absolute absorbance unit values for the minimum and maximum concentration points within 0-3 OD range). Each of the final datasets was additionally visually evaluated by the operator and goodness of fit (R2) is calculated for each calibration curve.

[3] = Thermodynamic solubility protocol 2 (FaSSIF, FeSSIF); type: physicochemical; conditions: 25° C.
Protocol: In a 8 mL glass vial, 1-2 mg of dry matter of the test compound were mixed with the suitable buffers (Fed State Simulated Intestine Fluid (FeSSIF) or Fasted State Simulated Intestine Fluid (FaSSIF)) to reach a theoretical concentration of 4 mM. The solutions were allowed to further equilibrate at 25° C. on a thermostatic shaker. After 4 and 24 hours of shaking, respectively, the incubation mixtures were filtered through HTS filter plates using a vacuum manifold. The filtrates of test compounds were diluted 500-fold with acetonitrile/buffer mixtures with 2% DMSO before measuring. In parallel, using a 20 mM DMSO stock solution, compound dilutions in 50% acetonitrile/buffer (v/v) were prepared to the theoretical concentrations of 0 μM (blank), 10 μM, 25 μM, 50 μM, 100 μM and 200 μM with 2% final DMSO to generate calibration curves. Calibration standards were diluted 100-fold with 50% acetonitrile/water (v/v) mixes before LC-MS/MS measurement (systems API4000 QTRAP).

SMILES	hepatocyte CLint at 1 µM [1] [µL/min/1e6 cells]	TSOL pH 3.0 ([2]; time point 4 h) [μM]	TSOL pH 7.4 ([2]; time point 4 h) [μM]	TSOL pH 3.0 ([2]; time point 24 h) [μM]	TSOL pH 7.4 ([2]; time point 24 h) [μM]	TSOL FaSSIF pH 6.5 ([3]; time point 4 h) [μM]	TSOL FeSSIF pH 5.0 ([3]; time point 4 h) [μM]	TSOL FaSSIF pH 6.5 ([3]; time point 24 h) [μM]	TSOL FeSSIF pH 5.0 ([3]; time point 24 h) [μM]
CC(C)Cc1cc(F)c(-c2nn[nH]n2)c(N2CCN(Cc3ccccn3)[C@@H](C)C2)c1 [Compound A-217, (2S)-4-[3-fluoro-5-isobutyl-2-(2H-tetrazol-5-yl)phenyl]-2-methyl-1-(2-pyridylmethyl)piperazine]	5.8	–	–	–	–	–	–	–	–
CC(C)Cc1cc(F)c(-c2nn[nH]n2)c(N2CCN(Cc3cccnn3)[C@@H](C)C2)c1 [Compound A-174, 3-[[(2S)-4-[3-fluoro-5-isobutyl-2-(2H-tetrazol-5-yl)phenyl]-2-methyl-piperazin-1-yl]methyl]pyridazine]	< 2.9	≥400	>400	≥400	>400	>400	>400	>400	>400
